Laboratory results from US12064516B2, “Pharmaceutical formulations and uses thereof” (Aldeyra Therapeutics, Inc., priority 2020, dated 2024).
Read-outs that look alike come from different tables or passages of the source.

Assay: Pharmacokinetics of compound I-1 in the dog by intravenous, oral gavage and oral capsule routes
Type: in vivo, beagle dogs
Settings: for concentration at 0.083 h / concentration at 0.25 h / concentration at 0.5 h / concentration at 1 h / concentration at 2 h / concentration at 4 h / concentration at 8 h / concentration at 12 h / AUC(0-inf) / AUC(0-t) / C0 / clearance / half-life / Vd: male, beagle, dog, plasma; for concentration at 0.083 h / concentration at 0.25 h / concentration at 0.5 h / concentration at 1 h / concentration at 2 h / concentration at 4 h / concentration at 8 h / concentration at 12 h: read-out: Concentration at time point; for Vd: read-out: Vss
Protocol: A pharmacokinetic study was conducted to compare the bioavailability of capsule and suspension oral formulations vs. an intravenous formulations.
The standard curve was prepared from 1 to 2,000 ng/mL. QC samples were prepared at […]. Dilution QCs were prepared at 10-fold dilution. Deuterated (d6) I-1 (compound 1-7) was used as an internal standard. A 50 μL aliquot of sample was added to 150 μL of cold internal standard in acetonitrile to effect protein precipitation. The resulting supernatants were analyzed by LCMS. Diluted sample data was utilized only for over-the-curve results.
Briefly, 9 male non-naïve beagle dogs were assigned in groups of 3 to 3 dose groups. Group 1 was dosed 3 mg/kg by the intravenous route in a vehicle of 20% sulfobutylether-β-cyclodextrin (SBECD). Group 2 was dosed 10 mg/kg by the oral gavage route in a vehicle of 0.5% methylcellulose (MC). Group 3 was dosed with 100 mg capsules.
The I-1 100 mg capsules are manufactured as a non-sterile spray dried, granulated powder blend. The blend is then filled into capsules for oral delivery. The capsules are packaged in high-density polyethylene bottles. The quantitative composition of the I-1 100 mg capsule is presented above in Table B.
Procedure: (PO) gavage: formulations will be administered via a rubber oral gavage tube followed by a 10 mL flush with drinking water. (PO) tablet: tablets will be administered orally by placing the tablet in the back of the throat followed by a 10 mL flush with water.
Frequency: Pre-dose, 5, 15, 30 min, 1, 2, 4, 8, and 12 hrs post-dose (IV); pre-dose, 15, 30 min, 1, 2, 4, 8, and 12 hrs post-dose (PO by gavage and PO by capsule).
Blood collection: each blood sample will be collected from the dog's jugular vein or other accessible vein via direct venepuncture, placed into a pre-labeled tube containing K2EDTA and kept on ice until centrifugation.
Plasma preparation and storage: Certifuged at 4 C at 3,000× for 5 mm. Stored in a freezer until analysed.
Pharmacokinetics package PKSolver2.0™ has been validated against WinNonLin™ as a tool for non-GLP studies and was used to process the pharmacokinetic data.
For each route, the average data were processed with non-compartmental, one compartment, and two compartment models. The models were assessed for goodness of fit and the accuracy of the model to assess the biphasic data, with either a) no weighting, b) 1/concentration observed, or c) 1/concentration observed squared. 1/concentration predicted, and 1/concentration predicted squared weightings were also assessed for best fit. […] The zeros were averaged with the 71.5 value for a resulting average of 23.8. For the In Group 2 (PO Gavage) subject 3 experienced 30 mL of emesis, so the dose assigned to that subject was 7.46. In all cases, the subjects were modelled individually, and the individual PK parameters were averaged to provide final parameters.
For group 1 (intravenous) the final model selected was a two compartment model with 1/concentration observed squared weighting.
For group 2 (oral gavage) the final model was a two compartment extravascular model with 1/concentration predicted squared weighting.
For group 3 (oral capsule) the final model was a one compartment extravascular model with a lag time and no weighting. […] The body weight of each animal was used to assign a mg/kg dose to each individual. Subject 1 was dosed at 7.69 mg/kg. Subject 2 was 6.94 mg/kg, and Subject 3 was 6.99 mg/kg.

[1] = iv, 3 mg/kg, Group 1: IV 3 mg/kg, Average
[2] = iv, 3 mg/kg, Group 1: IV 3 mg/kg, Subject 1
[3] = iv, 3 mg/kg, Group 1: IV 3 mg/kg, Subject 2
[4] = iv, 3 mg/kg, Group 1: IV 3 mg/kg, Subject 3
[5] = iv, 3 mg/kg, Intravenous - 3 mg/kg, Average
[6] = iv, 3 mg/kg, Intravenous - 3 mg/kg, Subj1
[7] = iv, 3 mg/kg, Intravenous - 3 mg/kg, Subj2
[8] = iv, 3 mg/kg, Intravenous - 3 mg/kg, Subj3
[9] = oral, 7 mg/kg, Group 3: PO Capsule 7 mg/kg, Subject 1
[10] = oral, 7 mg/kg, Group 3: PO Capsule 7 mg/kg, Subject 3
[11] = oral, 7 mg/kg, Group 3: PO Capsule 7 mg/kg, Average
[12] = oral, 7 mg/kg, Group 3: PO Capsule 7 mg/kg, Subject 2

SMILES: CC(C)(O)c1nc2ccccc2cc1N [I-1]
- AUC/Dose (100 mg Capsule, average dose 7.2 mg/kg, Average): 1139 ng·h/mL/mg/kg
- AUC/Dose (100 mg Capsule, average dose 7.2 mg/kg, Subj1): 955 ng·h/mL/mg/kg
- AUC/Dose (100 mg Capsule, average dose 7.2 mg/kg, Subj2): 809 ng·h/mL/mg/kg
- AUC/Dose (100 mg Capsule, average dose 7.2 mg/kg, Subj3): 1653 ng·h/mL/mg/kg
- AUC/Dose (Intravenous - 3 mg/kg, Average): 1379
- AUC/Dose (Intravenous - 3 mg/kg, Subj1): 1361
- AUC/Dose (Intravenous - 3 mg/kg, Subj2): 1520
- AUC/Dose (Intravenous - 3 mg/kg, Subj3): 1256
- AUC/Dose (Oral Gavage 0.5% Methylcellulose 10 mg/kg, Average): 1038 ng·h/mL/mg/kg
- AUC/Dose (Oral Gavage 0.5% Methylcellulose 10 mg/kg, Subj1): 1121 ng·h/mL/mg/kg
- AUC/Dose (Oral Gavage 0.5% Methylcellulose 10 mg/kg, Subj2): 1010 ng·h/mL/mg/kg
- AUC/Dose (Oral Gavage 0.5% Methylcellulose 10 mg/kg, Subj3 (dose assigned 7.46 after emesis)): 982 ng·h/mL/mg/kg
- concentration at 0.083 h [1]: 5.08 µg/mL
- concentration at 0.083 h [2]: 4.91 µg/mL
- concentration at 0.083 h [3]: 4.9 µg/mL
- concentration at 0.083 h [4]: 5.43 µg/mL
- concentration at 0.25 h [1]: 2.41 µg/mL
- concentration at 0.25 h [2]: 2.78 µg/mL
- concentration at 0.25 h [3]: 2.3 µg/mL
- concentration at 0.25 h [4]: 2.15 µg/mL
- concentration at 0.5 h [1]: 1.66 µg/mL
- concentration at 0.5 h [2]: 1.72 µg/mL
- concentration at 0.5 h [3]: 1.7 µg/mL
- concentration at 0.5 h [4]: 1.57 µg/mL
- concentration at 1 h [1]: 0.951 µg/mL
- concentration at 1 h [2]: 0.857 µg/mL
- concentration at 1 h [3]: 0.908 µg/mL
- concentration at 1 h [4]: 1.09 µg/mL
- concentration at 2 h [1]: 0.548 µg/mL
- concentration at 2 h [2]: 0.436 µg/mL
- concentration at 2 h [3]: 0.766 µg/mL
- concentration at 2 h [4]: 0.443 µg/mL
- concentration at 4 h [1]: 0.25 µg/mL
- concentration at 4 h [2]: 0.259 µg/mL
- concentration at 4 h [3]: 0.287 µg/mL
- concentration at 4 h [4]: 0.203 µg/mL
- concentration at 8 h [1]: 0.0425 µg/mL
- concentration at 8 h [2]: 0.049 µg/mL
- concentration at 8 h [3]: 0.0554 µg/mL
- concentration at 8 h [4]: 0.0231 µg/mL
- concentration at 12 h [1]: 0.0155 µg/mL
- concentration at 12 h [2]: 0.0239 µg/mL
- concentration at 12 h [3]: 0.017 µg/mL
- concentration at 12 h [4]: 0.0055 µg/mL
- AUC(0-inf) [5]: 4.14 µg·h/mL
- AUC(0-t) [5]: 4.1 µg·h/mL
- C0 [5]: 6.72 µg/mL
- clearance [5]: 0.732 L/h/kg
- half-life [5]: 1.82 h
- Vd [5]: 1.39 L/kg
- AUC(0-inf) [6]: 4.08 µg·h/mL
- AUC(0-t) [6]: 4.03 µg·h/mL
- C0 [6]: 5.6 µg/mL
- clearance [6]: 0.732 L/h/kg
- half-life [6]: 2.2 h
- Vd [6]: 1.51 L/kg
- AUC(0-inf) [7]: 4.56 µg·h/mL
- AUC(0-t) [7]: 4.52 µg·h/mL
- C0 [7]: 6.67 µg/mL
- clearance [7]: 0.66 L/h/kg
- half-life [7]: 1.82 h
- Vd [7]: 1.4 L/kg
- AUC(0-inf) [8]: 3.77 µg·h/mL
- AUC(0-t) [8]: 3.76 µg·h/mL
- C0 [8]: 7.89 µg/mL
- clearance [8]: 0.798 L/h/kg
- half-life [8]: 1.44 h
- Vd [8]: 1.25 L/kg
- concentration at 0.25 h [9]: 0 µg/mL
- concentration at 0.25 h [10]: 0 µg/mL
- concentration at 0.5 h [11]: 0.0974 µg/mL
- concentration at 0.5 h [9]: 0.0011 µg/mL
- concentration at 0.5 h [12]: 0.29 µg/mL
- concentration at 0.5 h [10]: 0.001 µg/mL
- concentration at 1 h [11]: 0.137 µg/mL
- concentration at 1 h [9]: 0.024 µg/mL
- concentration at 1 h [12]: 0.254 µg/mL
- concentration at 1 h [10]: 0.134 µg/mL
- concentration at 2 h [11]: 2.35 µg/mL
- concentration at 2 h [9]: 1.75 µg/mL
- concentration at 2 h [12]: 1.32 µg/mL
- concentration at 2 h [10]: 3.99 µg/mL
- concentration at 4 h [11]: 0.985 µg/mL
